Reference: patent publication US9849101B2, “Method for enhancing amidohydrolase activity of fatty acid amide hydrolase” (Research Foundation of the City University of New York, priority 2013, dated 2017)

Legend:
[1] = tested on: Arabidopsis thaliana wild type (Col-0) seedlings; test: Arabidopsis seedling growth (cotyledon size, primary root elongation); format: in vivo
rat E18 cortical neurons = test: Viability of cultured primary neurons (calcein fluorescence), tBHP oxidative stress; format: cell-based
Protocol: Commercially obtained Sprague/Dawley rat E18 cortical tissue was allowed to settle for 5-10 minutes at room temperature, the shipping media was removed (reserved at 37° C.), and the tissue was enzymatically treated with NeuroPapain dissolved in NeuroPrep Medium (2 mg/ml, 2.5 ml) for 28 minutes at 37° C. with gentle swirling every 7 minutes. Treated tissue was centrifuged for 1.5 minutes at 200×g and the cells were dissociated by gentle trituration in 1 ml of the reserved shipping medium. Cells were collected by centrifugation as above and re-suspended by gentle trituration in 1 ml of NeuroPure plating medium. Viable cells were counted, (Nexcelom Auto T4; Nexcelom Bioscience LLC. Lawrence, Mass.) re-suspended in 9 ml of NeuroPure plating medium plus enough Neurobasal medium (supplemented with B27; GlutaMAX I, 2 mM; Penicillin, 50 U/ml; Streptomycin, 50 μg/ml) to achieve a density of 250,000 cells/ml, and seeded in BD PureCoat™ black-walled amine-coated 96-well plates in a 100 μl volume. […]
Oxidative stress was induced by the addition of concentrated tert-butyl hydrogen peroxide (tBHP) to achieve a final concentration of 7.5 μM. […] For each condition, six replicate wells were measured and the mean value was used for statistical analyses. Data was analyzed and plotted using Prism 5.0 (GraphPad Software Inc., La Jolla, Calif.). […]

rat brain FAAH = target: T1, rat brain FAAH (Rattus norvegicus, UniProt P97612); conditions: reported value; read-out: IC50 for anandamide hydrolysis; cited from earlier work
T1 construct: host or cells: rat brain
T1 sequence (P97612 1-579): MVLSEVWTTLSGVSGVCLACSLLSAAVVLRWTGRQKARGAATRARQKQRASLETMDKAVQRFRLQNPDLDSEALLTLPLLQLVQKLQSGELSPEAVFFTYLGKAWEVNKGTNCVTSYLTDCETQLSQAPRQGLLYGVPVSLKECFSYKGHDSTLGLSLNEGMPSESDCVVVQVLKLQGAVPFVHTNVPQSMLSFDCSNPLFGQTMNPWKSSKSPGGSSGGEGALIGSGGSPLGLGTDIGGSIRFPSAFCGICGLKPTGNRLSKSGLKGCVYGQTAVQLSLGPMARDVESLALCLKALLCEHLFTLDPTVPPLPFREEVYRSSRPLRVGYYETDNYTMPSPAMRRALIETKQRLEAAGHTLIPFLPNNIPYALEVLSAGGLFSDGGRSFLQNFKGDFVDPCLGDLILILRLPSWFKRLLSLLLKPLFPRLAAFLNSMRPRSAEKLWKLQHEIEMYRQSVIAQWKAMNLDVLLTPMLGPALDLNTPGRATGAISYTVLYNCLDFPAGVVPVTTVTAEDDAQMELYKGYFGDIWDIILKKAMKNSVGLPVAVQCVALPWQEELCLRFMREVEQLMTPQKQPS

[2] = target: T2, Arabidopsis thaliana FAAH (AT-FAAH) (Arabidopsis thaliana, UniProt Q7XJJ7); test: NAE amidohydrolase assay on purified recombinant At-FAAH; format: biochemical
T2 construct: made in house; host or cells: E. coli TOP10
T2 sequence (Q7XJJ7 1-607): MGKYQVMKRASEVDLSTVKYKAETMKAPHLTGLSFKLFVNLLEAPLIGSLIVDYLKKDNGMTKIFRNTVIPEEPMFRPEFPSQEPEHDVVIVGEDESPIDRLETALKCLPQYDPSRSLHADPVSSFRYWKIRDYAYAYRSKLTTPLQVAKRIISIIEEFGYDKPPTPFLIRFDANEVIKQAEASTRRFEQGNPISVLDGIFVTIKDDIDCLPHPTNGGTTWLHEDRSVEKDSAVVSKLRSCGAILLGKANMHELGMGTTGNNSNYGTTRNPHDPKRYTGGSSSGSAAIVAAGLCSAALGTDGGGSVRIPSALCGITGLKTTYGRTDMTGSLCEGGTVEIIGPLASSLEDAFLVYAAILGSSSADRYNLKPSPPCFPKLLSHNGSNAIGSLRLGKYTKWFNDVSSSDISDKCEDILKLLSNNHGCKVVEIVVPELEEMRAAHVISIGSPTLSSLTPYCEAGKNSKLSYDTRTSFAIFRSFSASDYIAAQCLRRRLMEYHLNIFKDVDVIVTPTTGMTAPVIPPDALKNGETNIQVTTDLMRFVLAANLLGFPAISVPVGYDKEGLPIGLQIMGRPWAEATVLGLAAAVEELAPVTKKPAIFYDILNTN

rat FAAH [3] = target: T3, rat FAAH (Rattus norvegicus, UniProt P97612); test: NAE amidohydrolase assay on purified recombinant rat FAAH; format: biochemical
T3 construct: made in house; host or cells: E. coli TOP10
T3 sequence (P97612 1-579): T1 sequence (P97612 1-579)

At-FAAH = target: T4, At-FAAH (Arabidopsis thaliana, UniProt Q7XJJ7); test: Ethanolamine inhibition assay, At-FAAH; format: biochemical
T4 construct: made in house; host or cells: E. coli TOP10
T4 sequence (Q7XJJ7 1-607): T2 sequence (Q7XJJ7 1-607)

rat FAAH [4] = target: T3, rat FAAH; test: Ethanolamine inhibition assay, rat FAAH; format: biochemical
[5] = target: T5, NAE amidohydrolase activity from crude seedling extracts (Arabidopsis thaliana, UniProt Q7XJJ7); test: Plant amidohydrolase assay on crude seedling protein extract; format: biochemical; conditions: [1-14C]-NAE 12:0, 11-d-old seedlings, 2 hours
T5 construct: from tissue; host or cells: 11-day-old Arabidopsis thaliana Col-0 seedlings, total solubilized protein
T5 sequence (Q7XJJ7 1-607): T2 sequence (Q7XJJ7 1-607)

[6] = 2 μg protein, 100 μM-300 μM substrate, TLC
[7] = 100 μM [1-14C]-NAE 12:0 with 100 μM compound
[8] = 100 μM compound, up to 10 mM ethanolamine, 100 μM [1-14C]-NAE 12:0

## CCCCCCCCCCCC(=O)NCCO [NAE 12:0, N-lauroylethanolamine, reference compound]
[1]; applied exogenously
  seedling growth on exogenous application: inhibits seedling growth

## CCCCCCCCCCCCCCCC(=O)NCCO [NAE 16:0, N-palmitoylethanolamine]
Rat E18 cortical neurons; 1 hour prior to addition of 1 nM cardanol-EA
  reversal of cardanol-induced exacerbation of tBHP mediated cell death: dose-dependent reversal
Rat brain FAAH
  IC50: 5.1 µM

## CCCCCCCCCCCCCCCc1cccc(OCC(=O)NCCO)c1 [PDP-EA, N-(2-hydroxyethyl)-2-(3-pentadecylphenoxy)acetamide]
[2]
  apparent Vmax: increased
[2]; [6]
  hydrolysis of the compound as substrate to acid form and ethanolamine: not suitable substrates
[2]; [7]
  amidohydrolase activity toward NAE: increased
[2]; 100 μM compound, different [1-14C]-NAEs
  increase of activity by a factor: about 4±1.2
[2]; NAE 12:0 substrate, 100 μM compound, T-test confidence level 95%
  Km app versus solvent control: No statistical difference
[2]; heat-denaturated enzyme, 100 μM compound
  non-enzymatic hydrolysis of NAE to free fatty acid: no activity
Rat FAAH [3]
  apparent Vmax: increased
Rat FAAH [3]; [6]
  hydrolysis of the compound as substrate to acid form and ethanolamine: not suitable substrates
Rat FAAH [3]; [7]
  amidohydrolase activity toward NAE: increased
Rat FAAH [3]; 100 μM compound, NAE 16:0 and NAE 12:0
  increase of activity by a factor: about 5±2.2
Rat FAAH [3]; NAE 20:4 substrate, 100 μM compound
  Kcat versus solvent control: increase in Kcat
At-FAAH; [8]
  protection from ethanolamine product inhibition: relieved this ethanolamine inhibition almost completely
Rat FAAH [4]; [8]
  protection from ethanolamine product inhibition: relieved this ethanolamine inhibition almost completely
[1]; 30 μM NAE 12:0, 20 μM compound, 11 days
  reversal of negative seedling growth effects of exogenous NAE 12:0: reverse partially
[1]; compound alone, 11 days
  seedling growth (cotyledon size), compound alone: positive impact on seedling growth
[1]; with NAE 12:0, 11 days
  reversal of negative effects of NAE 12:0 on cotyledon size: partially reversed
[5]
  NAE amidohydrolase activity of crude seedling extracts: enhancement

## NC(=O)c1cccc(-c2cccc(OC(=O)NC3CCCCC3)c2)c1 [URB597]
Rat E18 cortical neurons
  reversal of cardanol-induced exacerbation of tBHP mediated cell death by FAAH inhibitor: completely reversed

## NCCO [ethanolamine]
At-FAAH; 0-100 mM ethanolamine
  NAE hydrolase activity at increasing ethanolamine concentrations: dose-dependent reduction
Rat FAAH [4]; 0-100 mM ethanolamine
  NAE hydrolase activity at increasing ethanolamine concentrations: dose-dependent reduction
